Experimental findings from patent US20130345392A1, “EDN3-LIKE PEPTIDES AND USES THEREOF” (Pfizer Inc, priority 2011, published 2013) are described below.

One experiment relates to GLUTag cells. Particulars: for GLP-1 secretion from GLUTag cells, result in words: endothelin-3 at highest concentration 10 μM.
The test system of a further experiment is rat perfused colon. In words: GLP-1 secretion from rat perfused colon ex vivo. The note with it: forskolin (1 μM), rat perfused colon, vs baseline, p=0.0398. As for the experimental part: Ex vivo rat colon vascular perfusion experiments were performed as previously described (Plaisancié, 1995). Male Sprague-Dawley rats (300 g) were purchased from Charles River and fed ad libitum with Purina Lab Chow #5001 (WF Fisher and Son Inc Sommerville, N.J.). Rats were decapitated and the abdomen was opened with a midline incision. […] The arterial vascular perfusion started immediately with an oxygenated Krebs-Henseleit buffer containing-solution at a rate of 2 mL/minute [solution: Krebs-Henseleit buffer (25.0 mM NaHCO3; 118 mM NaCl; 4.7 mM KCl; 1.2 mM MgSO4; 1.2 mM KH2PO4; 2.5 mM CaCl2) with 3% BSA, 5 mM glucose, MEM essential and nonessential amino acids (pH 7.4)]. The colonal lumen was perfused at the rate of 0.5 mL/minute. The remaining colon and small intestine were removed after the ligation of their respective supplying vessels. After the colon preparation was transferred to a 37° C. tissue bath, the portal effluent was collected as 5 minute fractions. The fraction aliquots were frozen at −20° C. for subsequent determinations of GLP-1. EDN3 97-140 was dissolved at 200 nM in vascular perfusion solution and perfused into the artery after a 30 minute baseline collection. […] The GLP-1 detection assay was carried out by using a commercial kit for active GLP-1 (7-36) amide according to the manufacturer's instructions (Millipore). GLP-1 release data was normalized to % baseline using the average of fractions collected prior to treatment as the baseline value and the peak data following each treatment. The average data across 3 independent experiments was reported comparing EDN3 97-140 versus control (baseline) and forskolin versus control (baseline). Statistical analysis was performed by one sided Satterwaite's test due to unequal variance and the Holm test was applied to account for multiple comparisons.

Experiment [1] has as its system isolated rat aortic rings. Particulars: read-out: EC50, concentration-dependent contractions, n=4-6. As for the experimental part:
The thoracic aorta with endothelium intact was isolated from male Wistar rats (300-500 g), cut into 3 mm rings, and placed in tissue baths with oxygenated Krebs-Henseleit buffer containing (in mM): KCl (4.7), CaCl2-2H2O (2.5), MgSO4-7H2O (1.2), KH2PO4 (1.2), D-glucose (10), NaHCO3 (25), NaCl (118). Tissues were placed under a 3 g basal tension and allowed to equilibrate for 1 hour at 37° C.

Experiment [2] deals with T1, human endothelin ETB receptor (human, UniProt P24530 27-442).
T1 construct: whole, on cells; Assayed as membrane homogenates (2.4 ug protein) of transfected CHO cells; also called endothelin receptor B
T1 sequence (looked up): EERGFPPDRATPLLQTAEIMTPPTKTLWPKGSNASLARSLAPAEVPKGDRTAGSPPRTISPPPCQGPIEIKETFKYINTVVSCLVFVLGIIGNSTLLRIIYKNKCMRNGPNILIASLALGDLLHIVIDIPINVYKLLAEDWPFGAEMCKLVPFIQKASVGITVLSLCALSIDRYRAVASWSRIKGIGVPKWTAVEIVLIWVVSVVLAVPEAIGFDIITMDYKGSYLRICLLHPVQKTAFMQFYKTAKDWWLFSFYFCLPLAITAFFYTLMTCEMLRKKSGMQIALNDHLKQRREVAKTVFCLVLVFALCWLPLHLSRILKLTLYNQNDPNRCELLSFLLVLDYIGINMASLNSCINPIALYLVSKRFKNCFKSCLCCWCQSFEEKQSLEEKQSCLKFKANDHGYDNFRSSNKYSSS
In words: radioligand competition ([125I]endothelin-1) on membranes of CHO cells transfected with human ETB. The procedure: (§1) To evaluate the affinity of EDN3 97-140 for the agonist site of the human endothelin ETB receptor in transfected CHO cells, radioligand binding was used. […] Following incubation, the samples were filtered rapidly under vacuum through glass fiber filters (GF/B, Packard) presoaked with 0.1% BSA and rinsed several times with an ice-cold buffer containing 50 mM Tris-HCl and 150 mM NaCl using a 96-sample cell harvester (Unifilter, Packard). The filters were dried then counted for radioactivity in a scintillation counter (Topcount, Packard) using a scintillation cocktail (Microscint 0, Packard).
Background: Loss of bound radioactivity is the signal in a displacement assay; it reports binding, not function.

For experiment [3], the target named is T2, human endothelin ETA receptor (human, UniProt P25101 21-427).
T2 construct: whole, on cells; Assayed as membrane homogenates (10 ug protein) of transfected CHO cells; also called endothelin receptor A
T2 sequence (looked up): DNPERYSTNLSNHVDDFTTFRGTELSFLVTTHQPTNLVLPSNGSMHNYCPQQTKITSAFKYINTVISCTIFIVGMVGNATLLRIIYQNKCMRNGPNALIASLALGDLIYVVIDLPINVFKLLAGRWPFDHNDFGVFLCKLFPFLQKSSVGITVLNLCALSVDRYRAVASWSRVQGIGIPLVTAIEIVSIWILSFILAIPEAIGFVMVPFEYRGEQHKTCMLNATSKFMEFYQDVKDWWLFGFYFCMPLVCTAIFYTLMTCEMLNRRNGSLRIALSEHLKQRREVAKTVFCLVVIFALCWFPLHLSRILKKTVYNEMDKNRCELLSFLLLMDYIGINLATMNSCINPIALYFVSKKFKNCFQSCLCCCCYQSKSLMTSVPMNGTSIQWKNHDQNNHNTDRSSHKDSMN
In words: radioligand competition ([125I]endothelin-1) on membranes of CHO cells transfected with human ETA. As for the experimental part:
as §1, with “endothelin ETA receptor,” for “endothelin ETB receptor in transfected CHO cells,”, “binding with CHO cells transfected with the ETA receptor” for “binding”, “samples are” for “samples were”, “Packard). Filters” for “Packard). The filters”, “dried and” for “dried”

Like-named read-outs stand apart in the source and are kept apart here. Where a SMILES comes first, the peptide text is derived from it. Bridges are numbered along the chain shown (N, C = ends). Where no end group is shown, it is not given here. Bounds are passed on as bounds.

`CC[C@H](C)[C@H](NC(=O)[C@H](Cc1c[nH]c2ccccc12)NC(=O)[C@@H](NC(=O)[C@@H](NC(=O)[C@H](CC(=O)O)NC(=O)[C@H](CC(C)C)NC(=O)[C@H](Cc1c[nH]cn1)NC(=O)[C@H](CS)NC(=O)[C@H](Cc1ccc(O)cc1)NC(=O)[C@H](Cc1ccc(O)cc1)NC(=O)[C@@H](NC(=O)[C@H](CS)NC(=O)[C@H](CCC(=O)O)NC(=O)[C@H](CCCCN)NC(=O)[C@H](CC(=O)O)NC(=O)[C@H](CCCCN)NC(=O)[C@@H](N)Cc1ccc(O)cc1)C(C)C)[C@@H](C)CC)[C@@H](C)CC)C(=O)N[C@@H](CC(N)=O)C(=O)N[C@H](C(=O)N1CCC[C@H]1C(=O)N[C@@H](CCC(=O)O)C(=O)N[C@@H](CCC(N)=O)C(N)=O)[C@@H](C)O` [EDN3 102-123] (H-YKDKECVYYCHLDIIWINTPEQ-NH2; N-terminus assumed) gave an EC50 with GLUTag cells above 10000 nM.

As for `CC[C@H](C)[C@H](NC(=O)[C@H](CC(=O)O)NC(=O)[C@H](CC(C)C)NC(=O)[C@H](Cc1c[nH]cn1)NC(=O)[C@@H]1CSSC[C@H](N)C(=O)N[C@@H]([C@@H](C)O)C(=O)N[C@H]2CSSC[C@H](NC(=O)[C@H](CCC(=O)O)NC(=O)[C@H](CCCCN)NC(=O)[C@H](CC(=O)O)NC(=O)[C@H](CCCCN)NC(=O)[C@H](Cc3ccc(O)cc3)NC(=O)[C@H]([C@@H](C)O)NC(=O)[C@H](Cc3ccccc3)NC2=O)C(=O)N[C@@H](C(C)C)C(=O)N[C@@H](Cc2ccc(O)cc2)C(=O)N[C@@H](Cc2ccc(O)cc2)C(=O)N1)C(=O)N[C@H](C(=O)N[C@@H](Cc1c[nH]c2ccccc12)C(=O)O)[C@@H](C)CC` [endothelin-3, reference compound], in the experiment with GLUTag cells, the EC50 is above 10000 nM and the “GLP-1 secretion from GLUTag cells, result in words” value (shortened to “GLP-1 secretion from GLUTag cells”) was “no effect”. In addition, the “GLP-1 secretion from GLUTag cells” value with GLUTag cells (listed as Endothelin-3 (EDN3 97-117)) is on record as “not sufficient to elicit a GLP-1 release”.

With `C=C[C@@]1(C)CC(=O)[C@]2(O)[C@@]3(C)[C@@H](O)CCC(C)(C)[C@@H]3[C@H](O)[C@H](OC(C)=O)[C@@]2(C)O1` [forskolin, reference compound], the “stimulation of GLP-1 release, positive control” value in the experiment on rat perfused colon is listed as 1717±350%.

Molecule “ATCFTYKDKECVYYAHLDIIWINTPEQTVPYGLSNYRESLRGKR-NH2 (disulfide 3-11) [EDN3 97-140 C97A, C111A]” showed an EC50 in the experiment on GLUTag cells of 2700 nM.

Molecule “CTAFTYKDKEAVYYCHLDIIWINTPEQTVPYGLSNYRESLRGKR-NH2 (disulfide 1-15) [EDN3 97-140 C99A, C107A]” showed an EC50 in the experiment with GLUTag cells of 1600 nM.

In the case of “CTCFTYKDKECVYYCHLDIIFINTPEQTVPYGLSNYRESLRGKR-NH2 (disulfide 1-15, 3-11 (inferred)) [EDN3 97-140 W117F]”, in the experiment with GLUTag cells, the EC50 amounted to 731 nM and the “GLP-1 secretion from GLUTag cells” value is “does not cause a loss of GLP-1 secretagogue function”.

On to “CTCFTYKDKECVYYCHLDIIHINTPEQTVPYGLSNYRESLRGKR-NH2 (disulfide 1-15, 3-11 (inferred)) [EDN3 97-140 W117H]”, for which the EC50 with GLUTag cells was above 1000 nM.

As to “CTCFTYKDKECVYYCHLDIIWINTPEQTVPYGLSNYRESLR-NH2 (disulfide 1-15, 3-11 (inferred)) [EDN3 97-137]”, in the experiment on GLUTag cells, the EC50 stood at 1720 nM and the “GLP-1 secretion from GLUTag cells” value is “partial loss of activity”.

For “CTCFTYKDKECVYYCHLDIIWINTPEQTVPYGLSNYRESLRGKR-OH (disulfide 1-15, 3-11 (inferred)) [EDN3 97-140 free acid]”, the EC50 with GLUTag cells was found to be 2000 nM.

Consider “FTYKDKECVYYCHLDIIWINTPEQTVPYGLSNYRESLRGKR-NH2 (cysteines drawn unpaired) [EDN3 100-140]”, for which, in the experiment on GLUTag cells, the EC50 was above 10000 nM and the “GLP-1 secretion from GLUTag cells” value is given as “do not measurably stimulate GLP-1 secretion”.

In the experiment with GLUTag cells, FTYKDKESVYY-NH2 [EDN3 100-110] had an EC50 above 10000 nM.

In the experiment with GLUTag cells, “INTPEQTVPYGLSNYRESLRGKR-NH2 [EDN3 118-140]” gave an EC50 above 10000 nM.

In turn, “STSFTYKDKESVYYSHLDIIWINTPEQTVPYGLSNYRESLRGKR-NH2 [EDN3 97-140 C->S mutant]” registered an EC50 with GLUTag cells above 10000 nM.

As for “TCFTYKDKECVYYCHLDIIWINTPEQTVPYGLSNYRESLRGKR-NH2 (cysteines drawn unpaired) [EDN3 98-140]”, in the experiment on GLUTag cells, the EC50 is above 10000 nM and the “GLP-1 secretion from GLUTag cells” value is “do not measurably stimulate GLP-1 secretion”.

Take “YYAHLDIIAINTPEQTVPYGLSNYRESLRGKR-NH2 [EDN3 109-140 C111A W117A]”: in the experiment on GLUTag cells, the EC50 was above 10000 nM.

As for “YYSHLDIIWINTPEQTVPYGLSNYRESLRGKR-NH2 [EDN3 109-140 C111S]”, the EC50 in the experiment with GLUTag cells was above 10000 nM.

For the molecule endothelin-1 [reference compound], the EC50 in experiment [1] was 2.7 ± 1 nM.

B1: EDN3 97-140 (peptide)
peptide: CTCFTYKDKECVYYCHLDIIWINTPEQTVPYGLSNYRESLRGKR-NH2
modifications: not fully specified; cysteine pairing not given here
notes: also called long endothelin-3; 44 amino acid, C-terminally amidated endothelin-like peptide
Take B1: the binding result in experiment [2] and in experiment [3] was “no binding (tested: up to 3 µM)” throughout.
